# Data published in US20250101102A1, “BISPECIFIC ANTIBODY AGAINST CD3 AND CD20 IN COMBINATION THERAPY FOR TREATING DIFFUSE LARGE B-CELL LYMPHOMA” (GENMAB A/S, priority 2022, published 2025).
# Like-named read-outs stand apart in the source and are kept apart here.
# Columns and labels:
# T cells = assay: T cell viability after pretreatment with CHP components; assay type: cell-based
# [1] = test system: relapsed or refractory (R/R) B-NHL; highly refractory large B-cell lymphoma; conditions: cited from earlier work
# [2] = test system: primary DLBCL and follicular lymphoma patient biopsies; conditions: cited from earlier work
# [3] = test system: CD20-expressing Daudi cells; conditions: 333 ng/ml DuoBody-CD3xCD20, 4 donors
# Procedure: Briefly, T cells were pre-incubated with cyclophosphamide, doxorubicin, or prednisone for 16 hours and subsequently used in a cytotoxicity assay with epcoritamab and CD20-expressing Daudi cells as target cells (E: T ratio 2:1), in which cyclophosphamide, doxorubicin, or prednisone was added in the same concentration as during pre-incubation, respectively. Data are presented as percent viable target cells (CD4-CD8-CD22+), normalized to medium control (no Ab, no CHP component).
# [4] = test system: CD20-expressing Raji-luc tumor cells; conditions: NOD-SCID mice injected with Raji-luc tumor cells and PBMCs; even in the presence of an excess of IgG1-RTX-FEAR; cited from earlier work
# [5] = T cells pre-incubated for 16 hours
# [6] = highly refractory large B-cell lymphoma, n=157
molecule,measurement,setting,value
"C[C@]12C=CC(=O)C=C1CC[C@@H]1[C@@H]2C(=O)C[C@@]2(C)[C@H]1CC[C@]2(O)C(=O)CO [prednisone, 17,21-dihydroxypregna-1,4-diene-3,11,20-trione]",T cell viability after pretreatment,T cells; [5],did not impact T cell viability
epcoritamab: IgG1 bispecific CD3×CD20 antibody; heavy and light chain pairs SEQ ID NOs: 24/25 (CD3ε arm) and 26/27 (CD20 arm); CAS 2134641-34-0,complete response (CR) rate,[1]; [6],39%
same,median duration of response (DOR),[1]; [6],12 months
same,overall response rate (ORR),[1]; [6],63%
same,safety profile,[1]; in vivo,manageable safety profile
same,T-cell-mediated cytotoxicity,[2],induced T-cell-mediated cytotoxicity
same,viable B cells left after incubation,"[3]; T cells pretreated with cyclophosphamide, FIG. 1A right panel",very low percentages of viable B cells
same,viable B cells left after incubation,"[3]; T cells pretreated with prednisone, FIG. 1C right panel",very low percentages of viable B cells
same,tumor growth in the xenograft model,[4],effectively reduce tumor growth
"O=P1(N(CCCl)CCCl)NCCCO1 (centres unmarked) [cyclophosphamide, 2H-1,3,2-Oxazaphosphorin-2-amine, N,N-bis(2-chloroethyl)tetrahydro-, 2-oxide]",T cell viability after pretreatment,T cells,did not impact T cell viability
COc1cccc2c1C(=O)c1c(O)c3c(c(O)c1C2=O)C[C@@](O)(C(=O)CO)C[C@@H]3O[C@H]1C[C@H](N)[C@H](O)[C@H](C)O1 [doxorubicin],T cell viability after pretreatment,T cells; [5],reduction in T cell viability
